# Results as given in patent US20240059740A1, “CYCLIC PEPTIDES AND USES THEREOF” (PRE[…] INC., priority 2020, published 2024).
# Residues, ends and D or L forms follow the SMILES beside them.
# Assays:
# Assay type in all cases: cell-based, human
# Twist mRNA = assay: Real time RT-PCR, Twist mRNA expression
# From the text: (§1) The real-time reverse transcription polymerase chain reaction (RT-PCR) uses fluorescent reporter molecules to monitor the production of amplification products during each cycle of the PCR reaction. This combines the nucleic acid amplification and detection steps into one homogeneous assay and use of appropriate chemistries and data analysis eliminates the need for Southern blotting or DNA sequencing for amplicon identification. Its simplicity, specificity and sensitivity, together with its potential for high throughput and the ongoing introduction of new chemistries, more reliable instrumentation and improved protocols, has made real-time RT-PCR the benchmark technology for the detection and/or comparison of RNA levels.’
# (§2) In order to detect and quantify the expression of specific genes at mRNA level, real-time reverse transcriptase polymerase chain reaction (Real time RT-PCR) was performed. Total RNA of samples was isolated and purified using the PureLink® RNA Mini Kit (Life technologies). The concentration of total RNA was detected by NanoDrop 2000 Spectrophotometer (Thermo Scientific). The total RNA (2000 ng) was reverse transcribed using the High-Capacity cDNA Reverse Transcription Kit (Applied Biosystems™).
# (§3) The primers of target genes were TaqMan™ Gene Expression Assay for human PLAU (Hs01547054_m1), MMP-2 (Hs01548727_m1), MMP-9 (Hs00957562_m1), Snail-1 (Hs00195591_m1), Snail-2 (Hs00161904_m1), N-cadherin (Hs00983056_m1) and Twist (Hs01675818_s1). Relative quantification was done by reference to 18S ribosomal RNA (18S rRNA) and analysed using the comparative critical threshold (Ct) method
# The mRNA expression of MMPs was measured using qRT-PCR. This was tested three independent times; the results are shown in Tables 9, 10 and 11 for U251, U87 cells and O81024 cells respectively. Results are reported as percent of the control cells (no treatment). Both MMP-2 and uPA were decreased in U251 by SEQ ID NO.1. […]
# U87 cells = assay: BME cell invasion assay, U87; conditions: 24 h
# Protocol: To assess whether the ability of SEQ ID NO.1 to inhibit MMP-2 activity and, to a lesser extent, reduce the production of matrix proteinases and downregulate the expression of EMT markers, was of functional consequence in reducing the invasiveness of the GBM cells, the ability of the peptide was tested at the concentrations of 1, 10 and 100 μM (none of which are toxic to cells) to inhibit invasion of the GBM cells through a basement membrane. This assay, described in more detail below, is an in vitro surrogate for measurement of the in vivo invasion by tumour cells of their environment.
# The cell invasion assay employs a simplified Boyden chamber-like design that consists of two chambers separated by a filter (an 8 μm polycarbonate (PC) membrane) coated with basement membrane or different extracellular matrix components. The cell suspension is placed in the top chamber and incubated in the presence of test media containing specific chemo-attractants in the bottom chamber. Cells migrate from the top chamber to the bottom of the filter by degrading the coating over the filter pores. Detection of cell invasion is quantified using Calcein AM. Cell dissociation/Calcein AM solution is placed in the bottom chamber to dissociate the migrating cells from the filter. Calcein AM is internalized by the cells, and intracellular-esterases cleave the aceto-methylester (AM) moiety. Free Calcein fluoresces brightly and is used to quantitate the number of cells that have invaded or migrated by comparison with a standard curve (In Vitro Technologies Pty Ltd, (https://lifescience.invitro.com.au/brands/r-and-d-systems/).
# The filter was coated with PathClear® growth factor reduced BME. The selected peptides were applied to the cells in both upper and lower wells to make sure the concentration of peptides were the same and the chemoattractant was serum at a concentration of 2% (for adherent U87 & U251 cells) or growth factor mix required in the medium (for non- adherent, 081024 oncospheres).
# Cell invasion was determined using CultureCoat® 96 Well Medium BME Cell Invasion assay. Briefly, the cells were pre-starved 24 h before harvest. Then seeding 25,000 per well of cell in the upper chamber with serum free medium together different concentration of peptide. The bottom chamber also added different concentration of peptides with 2% (V/V) serum for GBM adherent cells or growth factor mix for neurosphere cells as chemoattractant. After 24 h incubation, the invading cells were measured by Calcein AM and calculated based on standard curve.
# The results are shown in Table 12, the results are expressed as % inhibition.
# uPA (PLAU) mRNA = assay: Real time RT-PCR, uPA mRNA expression
# From the text: as §1, §2, §3
# The mRNA expression of MMPs was measured using qRT-PCR. This was tested three independent times; the results are shown in Tables 9, 10 and 11 for U251, U87 cells and O81024 cells respectively. Results are reported as percent of the control cells (no treatment). Both MMP-2 and uPA were decreased in U251 by SEQ ID NO.1.
# [1] = 081024 cells, baseline expression level = 1
# [2] = U87 cells, baseline expression level = 1
smiles,measurement,setting,value
"CC(C)C[C@@H]1NC(=O)[C@H](C)NC(=O)[C@@H](NC(=O)[C@@H]2CCCN2C(=O)[C@@H](N)CC(C)C)CSSC(C)(C)CNC(=O)CC[C@@H](C(=O)N[C@@H](CCCNC(=N)N)C(N)=O)NC(=O)[C@H](CC(=O)O)NC(=O)[C@H](CC(N)=O)NC1=O [SEQ ID NO: 1, Leu-Pro-c(SSA*-Ala-Leu-Asn-Asp-Glu)-Arg-NH2] (HELM PEPTIDE1{L.P.C.A.L.N.D.E.R.[am]}|CHEM1{[CC(C)(CN[*:2])S[*:1]]}$PEPTIDE1,CHEM1,3:R3-1:R1|PEPTIDE1,CHEM1,8:R3-1:R2$$$V2.0; N-terminus assumed)","mRNA expression, Twist",Twist mRNA; [1],0.94
same,"mRNA expression, Twist",Twist mRNA; [2],0.79
same,"mRNA expression, Twist","Twist mRNA; U251 cells, relative to control (no treatment)",0.91
same,Invasion Inhibition Index (%),"U87 cells; 1 μM, listed as SEQ ID NO. 1",7.6%
same,Invasion Inhibition Index (%),"U87 cells; 1 μM, listed as SEQ ID NO.1",lower inhibition index compared to Chlorotoxin
same,Invasion Inhibition Index (%),U87 cells; 10 μM,15.5%
same,Invasion Inhibition Index (%),U87 cells; 100 μM,24.3%
same,"mRNA expression, uPA",uPA (PLAU) mRNA; [1],0.85
same,"mRNA expression, uPA",uPA (PLAU) mRNA; [2],1.19
same,"mRNA expression, uPA","uPA (PLAU) mRNA; U251 cells, relative to control (no treatment), 18S rRNA reference, listed as SEQ ID NO. 1",0.63
same,"mRNA expression, uPA","uPA (PLAU) mRNA; U251 cells, relative to control (no treatment), 18S rRNA reference, listed as SEQ ID NO.1",decreased
